# System: Staphylococcus aureus
# Experiment: Antibacterial activity against vancomycin-sensitive Staphylococcus aureus ATCC 49320 assessed as inhibition of bacterial growth incubated for 24 hrs
# Assay type: functional
smiles,measurement,value
CN[C@H](CC(C)C)C(=O)N[C@@H]1CCCCn2nncc2-c2cc3cc(c2OC)-c2cnnn2CCCC[C@@H]2NC(=O)[C@@H](C/C=C/Cc4ccccc4NC2=O)NC(=O)[C@@H]3NC(=O)[C@H](C)NC1=O,MIC,37.5 µg/mL

# From ChEMBL document CHEMBL5104130, “Synthesis of a tricyclic hexapeptide -via two consecutive ruthenium-catalyzed macrocyclization steps- with a constrained topology to mimic vancomycin's binding properties toward D-Ala-D-Ala dipeptide” (2022)
